Measurements published in patent publication US11512090B2, “Muscarinic acetylcholine M1 receptor antagonists” (PIPELINE THERAPEUTICS, INC., priority 2018, dated 2022).
Read-outs that look alike come from different tables or passages of the source.

Tests used:
Type in all cases: cell-based
human M1 receptor = target: T1, human M1 receptor (Homo sapiens, UniProt P11229); assay: In vitro functional assay of muscarinic acetylcholine receptor activity (aequorin calcium flux, antagonist mode vs EC80 acetylcholine), M1
T1 sequence (P11229 1-460): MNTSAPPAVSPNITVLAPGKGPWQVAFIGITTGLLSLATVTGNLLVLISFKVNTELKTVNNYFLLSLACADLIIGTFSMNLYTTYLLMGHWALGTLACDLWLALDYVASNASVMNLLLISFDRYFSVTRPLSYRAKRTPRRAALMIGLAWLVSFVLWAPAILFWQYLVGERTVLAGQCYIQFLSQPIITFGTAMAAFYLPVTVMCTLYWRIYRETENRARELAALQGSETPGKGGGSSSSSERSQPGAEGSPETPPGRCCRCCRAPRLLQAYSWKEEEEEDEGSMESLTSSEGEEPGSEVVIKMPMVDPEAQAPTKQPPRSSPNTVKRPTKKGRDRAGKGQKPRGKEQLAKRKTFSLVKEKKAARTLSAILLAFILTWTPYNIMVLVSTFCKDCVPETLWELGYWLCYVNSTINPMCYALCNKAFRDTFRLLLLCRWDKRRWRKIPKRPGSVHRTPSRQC
Method in brief: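 CHO-K1 cells stably co-expressing human M1 and aequorin were loaded with 5 uM coelenterazine h for 4 h at room temperature in the dark. IC50 came from the drop in luminescence.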

M3 = M3 (Homo sapiens, UniProt P20309); assay: In vitro functional assay of muscarinic acetylcholine receptor activity, M3
M2 = target: T2, M2 (Homo sapiens, UniProt P08172); assay: In vitro functional assay of muscarinic acetylcholine receptor activity, M2
T2 sequence (P08172 1-466): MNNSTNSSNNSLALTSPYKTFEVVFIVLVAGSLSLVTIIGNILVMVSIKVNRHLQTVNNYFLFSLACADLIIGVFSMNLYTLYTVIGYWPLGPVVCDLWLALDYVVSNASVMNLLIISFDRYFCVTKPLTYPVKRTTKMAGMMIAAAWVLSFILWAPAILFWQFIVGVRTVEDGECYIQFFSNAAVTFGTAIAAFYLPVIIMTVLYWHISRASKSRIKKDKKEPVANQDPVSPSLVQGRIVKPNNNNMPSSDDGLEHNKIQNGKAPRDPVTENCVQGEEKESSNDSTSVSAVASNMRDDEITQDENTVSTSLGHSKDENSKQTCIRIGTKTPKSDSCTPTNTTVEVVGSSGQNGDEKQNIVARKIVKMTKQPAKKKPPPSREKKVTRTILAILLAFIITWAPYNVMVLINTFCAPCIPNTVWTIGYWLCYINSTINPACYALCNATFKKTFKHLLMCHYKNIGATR

[1] = antagonist IC50 at M3, read-out: M3 IC50
[2] = antagonist IC50 at M2, read-out: M2 IC50
[3] = CHO-K1 cells stably expressing human M1 receptor with Aequorin, decrease in EC80 acetylcholine response, read-out: M1 IC50

Sequence of M3 (P20309 whole entry): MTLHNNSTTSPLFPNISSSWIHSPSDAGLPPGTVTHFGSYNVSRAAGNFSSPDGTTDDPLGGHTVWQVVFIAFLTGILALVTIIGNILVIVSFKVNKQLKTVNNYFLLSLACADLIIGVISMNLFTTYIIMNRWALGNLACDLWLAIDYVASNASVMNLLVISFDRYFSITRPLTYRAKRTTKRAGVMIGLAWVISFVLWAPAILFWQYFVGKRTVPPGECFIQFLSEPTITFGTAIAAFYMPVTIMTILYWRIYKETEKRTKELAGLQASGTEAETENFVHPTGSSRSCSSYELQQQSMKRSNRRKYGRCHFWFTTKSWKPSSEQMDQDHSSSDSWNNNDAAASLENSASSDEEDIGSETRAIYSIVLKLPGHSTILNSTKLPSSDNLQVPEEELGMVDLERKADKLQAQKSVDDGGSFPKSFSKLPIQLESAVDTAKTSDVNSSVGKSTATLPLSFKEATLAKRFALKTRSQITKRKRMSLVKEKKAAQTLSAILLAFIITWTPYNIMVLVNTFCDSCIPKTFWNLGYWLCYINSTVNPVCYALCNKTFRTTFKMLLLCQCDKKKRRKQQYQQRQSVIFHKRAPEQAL

N#Cc1ccc(N2C3CCC2CN(C(=O)CCOCc2cccc4ncnn24)C3)nc1 [Example 39, 6-{3-[3-({[1,2,4]triazolo[1,5-a]pyridin-5-yl}methoxy)propanoyl]-3,8-diazabicyclo[3.2.1]octan-8-yl}pyridine-3-carbonitrile]
IC50 (human M1 receptor): < 100 nM | IC50 (M3; [1]): 1000 to 10000 nM | IC50 (M2; [2]): 1000 to 10000 nM

N#Cc1ccc(N2[C@@H]3CC[C@H]2CN(C(=O)CCOCc2cccc4ncccc24)C3)nc1 [Example 40, 6-((1R, 5S)-3-(3-(quinolin-5-ylmethoxy)propanoyl)-3,8-diazabicyclo[3.2.1]octan-8-yl)nicotinonitrile]
IC50 (human M1 receptor): < 100 nM | IC50 (M3; [1]): > 10000 nM | IC50 (M2): 100 to 1000 nM

N#Cc1ccc(N2C3CCC2CN(C(=O)CCOCc2cccn4ncnc24)C3)nc1 [Example 42, 6-{3-[3-({[1,2,4]triazolo[1,5-a]pyridin-8-yl}methoxy)propanoyl]-3,8-diazabicyclo[3.2.1]octan-8-yl}pyridine-3-carbonitrile]
IC50 (human M1 receptor): < 100 nM | IC50 (M3; [1]): 1000 to 10000 nM | IC50 (M2; [2]): 1000 to 10000 nM

N#Cc1ccc(N2C3CCC2CN(C(=O)COCCc2cccc4nccnc24)C3)nc1 [Example 43, 6-(3-{2-[2-(quinoxalin-5-yl)ethoxy]acetyl}-3,8-diazabicyclo[3.2.1]octan-8-yl)pyridine-3-carbonitrile]
IC50 (human M1 receptor): 100 to 1000 nM | IC50 (M3): > 10000 nM | IC50 (M2): 1000 to 10000 nM

N#Cc1ccc(N2C3CCC2CN(C(=O)CCCCc2cccc4ncsc24)C3)nc1 [Example 44, 6-{3-[5-(1,3-benzothiazol-7-yl)pentanoyl]-3,8-diazabicyclo[3.2.1]octan-8-yl}pyridine-3-carbonitrile]
IC50 (human M1 receptor): < 100 nM | IC50 (M3; [1]): 1000 to 10000 nM | IC50 (M2): 100 to 1000 nM

N#Cc1ccc(N2[C@@H]3CC[C@H]2CN(C(=O)[C@H]2C[C@H](Nc4cccc5ncccc45)C2)C3)nc1 [Example 45, 6-(3-{3-[(quinolin-5-yl)amino]cyclobutanecarbonyl}-3,8-diazabicyclo[3.2.1]octan-8-yl)pyridine-3-carbonitrile]
IC50 (human M1 receptor): 100 to 1000 nM | IC50 (M3; [1]): > 10000 nM | IC50 (M2; [2]): 1000 to 10000 nM

N#Cc1ccc(N2C3CCC2CN(C(=O)N2CC(=Cc4cccc5ncccc45)C2)C3)nc1 [Example 46, 6-(3-{3-[(quinolin-5-yl)methylidene]azetidine-1-carbonyl}-3,8-diazabicyclo-[3.2.1]octan-8-yl)pyridine-3-carbonitrile]
IC50 (human M1 receptor): 100 to 1000 nM | IC50 (M3; [1]): 1000 to 10000 nM | IC50 (M2; [2]): 1000 to 10000 nM

O=C(COCc1cccc2cnccc12)N1C[C@H]2CC[C@@H](C1)N2c1ccc(F)cn1 [Example 47, 1-((1R,5S)-8-(5-fluoropyridin-2-yl)-3,8-diazabicyclo[3.2.1]octan-3-yl)-2-(isoquinolin-5-ylmethoxy)ethan-1-one]
IC50 (human M1 receptor; [3]): 1000 to 10000 nM | IC50 (M3; [1]): > 10000 nM | IC50 (M2; [2]): 1000 to 10000 nM

O=C(CCOCc1cccc2ncccc12)N1C[C@H]2CC[C@@H](C1)N2c1ccc(F)cn1 [Example 48, 1-((1R,5S)-8-(5-fluoropyridin-2-yl)-3,8-diazabicyclo[3.2.1]octan-3-yl)-3-(quinolin-5-ylmethoxy)propan-1-one]
IC50 (human M1 receptor): 100 to 1000 nM | IC50 (M3; [1]): > 10000 nM | IC50 (M2; [2]): 1000 to 10000 nM

O=C(CCOCc1cccc2cnccc12)N1C[C@H]2CC[C@@H](C1)N2c1ccc(F)cn1 [Example 49, 1-((1R,5S)-8-(5-fluoropyridin-2-yl)-3,8-diazabicyclo[3.2.1]octan-3-yl)-3-(isoquinolin-5-ylmethoxy)propan-1-one]
IC50 (human M1 receptor): 100 to 1000 nM | IC50 (M3; [1]): > 10000 nM | IC50 (M2; [2]): 1000 to 10000 nM

O=C(N1CC(Oc2cccc3ncccc23)C1)N1C[C@H]2CC[C@@H](C1)N2c1ccc(F)cn1 [Example 50, ((1R,5S)-8-(5-fluoropyridin-2-yl)-3,8-diazabicyclo[3.2.1]octan-3-yl)(3-(quinolin-5-yloxy)azetidin-1-yl)methanone]
IC50 (human M1 receptor; [3]): 1000 to 10000 nM | IC50 (M3; [1]): > 10000 nM | IC50 (M2; [2]): 1000 to 10000 nM

Cc1cc(F)cnc1N1[C@@H]2CC[C@H]1CN(C(=O)CCCc1cccc3ncccc13)C2 [Example 52, 1-((1R,5S)-8-(5-fluoro-3-methylpyridin-2-yl)-3,8-diazabicyclo[3.2.1]octan-3-yl)-4-(quinolin-5-yl)butan-1-one]
IC50 (human M1 receptor): 100 to 1000 nM | IC50 (M3; [1]): 1000 to 10000 nM | IC50 (M2): 100 to 1000 nM

Cc1cc(F)cnc1N1CCN(C(=O)CCCc2cccc3ncccc23)CC1 [Example 55, 1-(4-(5-fluoro-3-methylpyridin-2-yl)piperazin-1-yl)-4-(quinolin-5-yl)butan-1-one]
IC50 (human M1 receptor; [3]): < 100 nM | IC50 (M3; [1]): 1000 to 10000 nM | IC50 (M2; [2]): 100 to 1000 nM

CC1CN(c2ccncc2)CCN1C(=O)CCCc1cccc2ncccc12 (stereo not drawn) [Example 56, 1-(2-methyl-4-(pyridin-4-yl)piperazin-1-yl)-4-(quinolin-5-yl)butan-1-one]
IC50 (human M1 receptor; [3]): 100 to 1000 nM | IC50 (M3; [1]): 1000 to 10000 nM | IC50 (M2; [2]): 100 to 1000 nM

O=C(CCCc1cccc2ncccc12)N1CC2CC1CN2c1ccncc1 (stereo not drawn) [Example 57, 1-(5-(pyridin-4-yl)-2,5-diazabicyclo[2.2.1]heptan-2-yl)-4-(quinolin-5-yl)butan-1-one]
IC50 (human M1 receptor; [3]): 100 to 1000 nM | IC50 (M3; [1]): 1000 to 10000 nM | IC50 (M2; [2]): 1000 to 10000 nM

CC1CN(C(=O)CCCc2cccc3ncccc23)CCN1c1ccncc1 (stereo not drawn) [Example 60, 1-(3-methyl-4-(pyridin-4-yl)piperazin-1-yl)-4-(quinolin-5-yl)butan-1-one]
IC50 (human M1 receptor; [3]): < 100 nM | IC50 (M3; [1]): 1000 to 10000 nM | IC50 (M2; [2]): 100 to 1000 nM

O=C([C@H]1C[C@H](Oc2cccc3ncsc23)C1)N1CC2CCC(C1)N2c1ccc(F)cn1 [Example 63, ((1r,3R)-3-(benzo[d]thiazol-7-yloxy)cyclobutyl)((1R,5S)-8-(5-fluoropyridin-2-yl)-3,8-diazabicyclo[3.2.1]octan-3-yl)methanone]
IC50 (human M1 receptor; [3]): 1000 to 10000 nM | IC50 (M3; [1]): > 10000 nM | IC50 (M2): 100 to 1000 nM

O=C([C@H]1C[C@H](Oc2cccc3ncsc23)C1)N1CC2CCC(C1)N2c1ncc(Cl)cn1 [Example 64, ((1r,3R)-3-(benzo[d]thiazol-7-yloxy)cyclobutyl)((1R,5S)-8-(5-chloropyrimidin-2-yl)-3,8-diazabicyclo[3.2.1]octan-3-yl)methanone]
IC50 (human M1 receptor; [3]): > 10000 nM | IC50 (M3; [1]): 1000 to 10000 nM | IC50 (M2; [2]): 1000 to 10000 nM

Cc1cc(N2C3CCC2CN(C(=O)[C@H]2C[C@H](Oc4cccc5ncsc45)C2)C3)ccn1 [Example 65, ((1r,3R)-3-(benzo[d]thiazol-7-yloxy)cyclobutyl)((1R,5S)-8-(2-methylpyridin-4-yl)-3,8-diazabicyclo[3.2.1]octan-3-yl)methanone]
IC50 (human M1 receptor; [3]): 1000 to 10000 nM | IC50 (M3; [1]): > 10000 nM | IC50 (M2; [2]): 1000 to 10000 nM

O=C(CCCc1cccc2ncccc12)N1CCN(c2ccncc2F)CC1 [Example 67, 1-(4-(3-fluoropyridin-4-yl)piperazin-1-yl)-4-(quinolin-5-yl)butan-1-one]
IC50 (human M1 receptor; [3]): 100 to 1000 nM | IC50 (M3; [1]): 1000 to 10000 nM | IC50 (M2; [2]): > 10000 nM

N#Cc1cnccc1N1CCN(C(=O)CCCc2cccc3ncccc23)CC1 [Example 68, 4-(4-(4-(quinolin-5-yl)butanoyl)piperazin-1-yl)nicotinonitrile]
IC50 (human M1 receptor; [3]): 1000 to 10000 nM | IC50 (M3; [1]): 1000 to 10000 nM | IC50 (M2; [2]): > 10000 nM

COc1cc(N2CCN(C(=O)CCCc3cccc4ncccc34)CC2)ccn1 [Example 69, 1-(4-(2-methoxypyridin-4-yl)piperazin-1-yl)-4-(quinolin-5-yl)butan-1-one]
IC50 (human M1 receptor; [3]): 100 to 1000 nM | IC50 (M3; [1]): 1000 to 10000 nM | IC50 (M2; [2]): > 10000 nM

N#Cc1cc(N2CCN(C(=O)CCCc3cccc4ncccc34)CC2)ccn1 [Example 70, 4-(4-(4-(quinolin-5-yl)butanoyl)piperazin-1-yl)picolinonitrile]
IC50 (human M1 receptor; [3]): < 100 nM | IC50 (M3; [1]): 1000 to 10000 nM | IC50 (M2; [2]): 100 to 1000 nM

COc1cnc2cccc(CNCC(=O)N3C[C@H]4CC[C@@H](C3)N4c3ccncc3F)c2c1 [Example 71, 1-((1R,5S)-8-(3-fluoropyridin-4-yl)-3,8-diazabicyclo[3.2.1]octan-3-yl)-2-(((3-methoxyquinolin-5-yl)methyl)amino)ethan-1-one]
IC50 (human M1 receptor): 100 to 1000 nM | IC50 (M3; [1]): 1000 to 10000 nM | IC50 (M2): 100 to 1000 nM

Cc1nc2cccc(CNCC(=O)N3C[C@H]4CC[C@@H](C3)N4c3ccncc3F)c2o1 [Example 72, 1-((1R,5S)-8-(3-fluoropyridin-4-yl)-3,8-diazabicyclo[3.2.1]octan-3-yl)-2-(((2-methylbenzo[d]oxazol-7-yl)methyl)amino)ethan-1-one]
IC50 (human M1 receptor): 100 to 1000 nM | IC50 (M3; [1]): > 10000 nM | IC50 (M2; [2]): 1000 to 10000 nM
